# Patent publication US4849207A, “Porphyrin derivatives” (Nihon Medi-Physics Co., Ltd., priority 1985, dated 1989)
# Tests used:
# [1] = system: cancer cells of the pancreas; assay: Laser irradiation to an extracted organ (excited fluorescent spectrum); format: in vivo, golden hamsters; conditions: golden hamster, 5 mg i.v., after 24 hours
# Procedure: Laser irradiation to an extracted organ (excited fluorescent spectrum):
# To each of golden hamsters (five animals being grouped) transplaned with nitrosoamine-induced cancer cells of the pancreas, DTPA-10EG PPB-Me (5 mg) diluted with 0.1M citrate buffer (1 ml) was administered intravenously 14 to 21 days after the transplantation, and cancer cells and other organs were extracted. To each of the organs as extracted, N2 -pulsed laser (N2 337 nm, 2 ns 400-1000 nm) was irradiated, and excited fluorescent spectrum was measured after 24 hours. Taking the peak wavelength of NADH at 470 nm as the standard (i.e. 1), the wavelength at 600 to 900 nm was calculated. The results are shown in Table 1, from which it is understood that a porphyrin-related substance has a remarkably selective affinity to cancer cells.
# [2] = system: inflammation (turpentine oil induced); conditions: hamster, in vivo, 4320 min
# Procedure: (§1) Scintigraphy was obtained 72 and 96 hours after the administration by the use of a gamma-camera equipped with a medium energy high resolution type collimator.
# [3] = system: inflammation (croton oil induced); assay: Distribution in inflammation-induced rats, inflammation to tissue; format: in vivo, SD rats; conditions: SD rat, 72 hour post-injection; mean and s.d. for 3 animals
# Procedure: SD rats of about 200 grams in bodyweight received croton oil (0.1 ml) at the right hind leg subcutaneously to induce inflammation. […] The radioactivity level ratio between the inflamation and each tissue was determined.
# tumor = conditions: hamster, in vivo, 4320 min
# Procedure: as §1
compound,measurement,setting,value
"2,4-Bis[1-(In-diethylenetriamine-tetraacetic acid-acetyloxyethane)oxyethyl] In-deuteroporphyrin [In--bisDTPA--EG In--DP]",excited fluorescence at 600 to 900 nm relative to NADH peak at 470 nm (=1): Cancer,[1],0.00
same,excited fluorescence at 600 to 900 nm relative to NADH peak at 470 nm (=1): Kidney,[1],0.05
same,excited fluorescence at 600 to 900 nm relative to NADH peak at 470 nm (=1): Liver,[1],0.25
same,excited fluorescence at 600 to 900 nm relative to NADH peak at 470 nm (=1): Lung,[1],0.05
same,excited fluorescence at 600 to 900 nm relative to NADH peak at 470 nm (=1): Serum,[1],0.05
"C=Cc1c(C)c2cc3nc(c4c5[nH]c(cc6nc(cc1[nH]2)C(C)=C6CC)c(C)c5C(=O)C4C(=O)OCCOC(=O)CN(CCN(CCN(CC(=O)O)CC(=O)O)CC(=O)O)CC(=O)O)C(CCC(=O)O)C3C (stereo not shown) [DTPA--10EG PPB, Ethylene glycol mono-diethylenetriamine-tetraacetic acid-acetate mono-10b-pheophorbate]",excited fluorescence at 600 to 900 nm relative to NADH peak at 470 nm (=1): Cancer,[1],1.20
same,excited fluorescence at 600 to 900 nm relative to NADH peak at 470 nm (=1): Kidney,[1],0.43
same,excited fluorescence at 600 to 900 nm relative to NADH peak at 470 nm (=1): Liver,[1],0.77
same,excited fluorescence at 600 to 900 nm relative to NADH peak at 470 nm (=1): Lung,[1],0.45
same,excited fluorescence at 600 to 900 nm relative to NADH peak at 470 nm (=1): Serum,[1],0.52
"CCC1=C(C)c2cc3[nH]c(cc4nc(c5c6[nH]c(cc1n2)c(C)c6C(=O)C5C(=O)OCCOC(=O)C1C(=O)c2c(C)c5cc6nc(cc7[nH]c(cc8nc(c1c2[nH]5)C(CCC(=O)O)C8C)c(C)c7C(C)I)C(C)=C6CC)C(CCC(=O)O)C4C)c(C)c3C(C)I (stereo not shown) [I2 PPB Dimer, Bis[2-desethenyl-2-(1-iodoethyl)pheophobide]ethylene glycol diester]",excited fluorescence at 600 to 900 nm relative to NADH peak at 470 nm (=1): Cancer,[1],0.82
same,excited fluorescence at 600 to 900 nm relative to NADH peak at 470 nm (=1): Kidney,[1],0.07
same,excited fluorescence at 600 to 900 nm relative to NADH peak at 470 nm (=1): Liver,[1],0.31
same,excited fluorescence at 600 to 900 nm relative to NADH peak at 470 nm (=1): Lung,[1],0.20
same,excited fluorescence at 600 to 900 nm relative to NADH peak at 470 nm (=1): Serum,[1],1.58
"2,4-Bis[1-(In-diethylenetriamine-tetraacetic acid-acetyloxyethane)oxyethyl] Ga-deuteroporphyrin [In--bisDTPA--EG Ga--DP]",excited fluorescence at 600 to 900 nm relative to NADH peak at 470 nm (=1): Cancer,[1],0.40
same,excited fluorescence at 600 to 900 nm relative to NADH peak at 470 nm (=1): Kidney,[1],0.10
same,excited fluorescence at 600 to 900 nm relative to NADH peak at 470 nm (=1): Liver,[1],0.18
same,excited fluorescence at 600 to 900 nm relative to NADH peak at 470 nm (=1): Serum,[1],0.03
2-[1-(In-Diethylenetriamine-tetraacetic acid-acetyloxyethane)oxyethyl]-4-[1-(2-hydroxyethyl)oxyethyl] deuteroporphyrin dimethyl ester [In--DTPA--EG DP--Me],excited fluorescence at 600 to 900 nm relative to NADH peak at 470 nm (=1): Cancer,[1],0.83
same,excited fluorescence at 600 to 900 nm relative to NADH peak at 470 nm (=1): Kidney,[1],0.15
same,excited fluorescence at 600 to 900 nm relative to NADH peak at 470 nm (=1): Liver,[1],0.36
same,excited fluorescence at 600 to 900 nm relative to NADH peak at 470 nm (=1): Lung,[1],0.09
same,excited fluorescence at 600 to 900 nm relative to NADH peak at 470 nm (=1): Serum,[1],0.71
2-[1-(In-Diethylenetriamine-tetraacetic acid-acetyloxyethane)oxyethyl]-4-[1-(2-hydroxyethyl)oxyethyl] In-deuteroporphyrin [In--monoDTPA--EG In--DP],excited fluorescence at 600 to 900 nm relative to NADH peak at 470 nm (=1): Cancer,[1],0.30
same,excited fluorescence at 600 to 900 nm relative to NADH peak at 470 nm (=1): Kidney,[1],0.00
same,excited fluorescence at 600 to 900 nm relative to NADH peak at 470 nm (=1): Liver,[1],0.07
same,excited fluorescence at 600 to 900 nm relative to NADH peak at 470 nm (=1): Lung,[1],0.09
same,excited fluorescence at 600 to 900 nm relative to NADH peak at 470 nm (=1): Serum,[1],0.24
"C=Cc1c(C)c2cc3nc(c4c5[nH]c(cc6nc(cc1[nH]2)C(C)=C6CC)c(C)c5C(=O)C4C(=O)OC)C(CCC(=O)OCCOC(=O)CN(CCN(CCN(CC(=O)O)CC(=O)O)CC(=O)O)CC(=O)O)C3C (stereo not shown) [DTPA--7EG PPB, Ethylene glycol mono-diethylenetriaminetetraacetic acid-acetate mono-7c-pheophorbate]",excited fluorescence at 600 to 900 nm relative to NADH peak at 470 nm (=1): Cancer,[1],0.53
same,excited fluorescence at 600 to 900 nm relative to NADH peak at 470 nm (=1): Kidney,[1],0.32
same,excited fluorescence at 600 to 900 nm relative to NADH peak at 470 nm (=1): Liver,[1],0.33
same,excited fluorescence at 600 to 900 nm relative to NADH peak at 470 nm (=1): Lung,[1],0.30
same,excited fluorescence at 600 to 900 nm relative to NADH peak at 470 nm (=1): Serum,[1],0.31
2-[1-(In-Diethylenetriamine-tetraacetic acid-acetyloxyethane)oxyethyl]-4-[1-(2-hydroxyethyl)oxyethyl] Ga-deuteroporphyrin [In--monoDTPA--EG Ga--DP],excited fluorescence at 600 to 900 nm relative to NADH peak at 470 nm (=1): Cancer,[1],0.50
same,excited fluorescence at 600 to 900 nm relative to NADH peak at 470 nm (=1): Kidney,[1],0.05
same,excited fluorescence at 600 to 900 nm relative to NADH peak at 470 nm (=1): Liver,[1],0.03
same,excited fluorescence at 600 to 900 nm relative to NADH peak at 470 nm (=1): Lung,[1],0.14
same,excited fluorescence at 600 to 900 nm relative to NADH peak at 470 nm (=1): Serum,[1],0.02
"C=Cc1c(C)c2cc3nc(c4c5[nH]c(cc6nc(cc1[nH]2)C(C)=C6CC)c(C)c5C(=O)C4)C(CCC(=O)OCCOC(=O)CN(CCN(CCN(CC(=O)O)CC(=O)O)CC(=O)O)CC(=O)O)C3C (stereo not shown) [DTPA--7EG pyroPPB, Ethylene glycol mono-diethylenetriaminetetraacetic acid-acetate mono-7c-pyropheophorbate]",excited fluorescence at 600 to 900 nm relative to NADH peak at 470 nm (=1): Cancer,[1],2.20
same,excited fluorescence at 600 to 900 nm relative to NADH peak at 470 nm (=1): Kidney,[1],0.25
same,excited fluorescence at 600 to 900 nm relative to NADH peak at 470 nm (=1): Liver,[1],0.87
same,excited fluorescence at 600 to 900 nm relative to NADH peak at 470 nm (=1): Lung,[1],1.23
same,excited fluorescence at 600 to 900 nm relative to NADH peak at 470 nm (=1): Serum,[1],0.39
"C=Cc1c(C)c2cc3nc(c4c5[nH]c(cc6nc(cc1[nH]2)C(C)=C6CC)c(C)c5C(=O)C4C(=O)OCCOC(=O)CN(CCN(CCN(CC(=O)O)CC(=O)O)CC(=O)O)CC(=O)O)C(CCC(=O)OC)C3C (stereo not shown) [DTPA--10EG PPB--Me, Ethylene glycol monodiethylenetriaminetetraacetic acid-acetate mono-10b-methylpheophorbate]",excited fluorescence at 600 to 900 nm relative to NADH peak at 470 nm (=1): Cancer,[1],2.73
same,excited fluorescence at 600 to 900 nm relative to NADH peak at 470 nm (=1): Kidney,[1],0.37
same,excited fluorescence at 600 to 900 nm relative to NADH peak at 470 nm (=1): Liver,[1],0.69
same,excited fluorescence at 600 to 900 nm relative to NADH peak at 470 nm (=1): Lung,[1],0.47
same,excited fluorescence at 600 to 900 nm relative to NADH peak at 470 nm (=1): Serum,[1],0.53
"O=C([O-])CC(O)(CC(=O)[O-])C(=O)[O-].[67Ga+3] [Gallium (^67 Ga) citrate, gallium (^67 Ga) citrate]",Inflammation to tissue concentration ratio: Blood,[2],17.55
same,Inflammation to tissue concentration ratio: Heart,[2],3.10
same,Inflammation to tissue concentration ratio: Kidney,[2],0.36
same,Inflammation to tissue concentration ratio: Liver,[2],0.33
same,Inflammation to tissue concentration ratio: Lung,[2],2.23
same,Inflammation to tissue concentration ratio: Muscle,[2],25.15
same,Inflammation to tissue concentration ratio: Spleen,[2],0.68
same,Inflammation to tissue concentration ratio: Blood,[3],21.61 ± 6.47
same,Inflammation to tissue concentration ratio: Heart,[3],7.49 ± 3.37
same,Inflammation to tissue concentration ratio: Kidney,[3],5.04 ± 6.35
same,Inflammation to tissue concentration ratio: Liver,[3],0.69 ± 0.17
same,Inflammation to tissue concentration ratio: Lung,[3],5.41 ± 0.71
same,Inflammation to tissue concentration ratio: Muscle,[3],12.81 ± 4.61
same,Inflammation to tissue concentration ratio: Spleen,[3],0.64 ± 0.11
same,Tumor to tissue concentration ratio: Blood,tumor,9.89
same,Tumor to tissue concentration ratio: Heart,tumor,1.73
same,Tumor to tissue concentration ratio: Kidney,tumor,0.20
same,Tumor to tissue concentration ratio: Liver,tumor,0.18
same,Tumor to tissue concentration ratio: Lung,tumor,1.26
same,Tumor to tissue concentration ratio: Muscle,tumor,14.20
same,Tumor to tissue concentration ratio: Spleen,tumor,0.39
